Results published in patent US20140335052A1, “COMBINATION THERAPY FOR TREATING HCV INFECTION IN AN HCV-HIV COINFECTED PATIENT POPULATION” (BOEHRINGER INGELHEIM INTERNATIONAL GMBH, priority 2012, published 2014).
Marks after values point to notes of the source that are not given here.

Columns and labels:
[1] = Phase III trial of FDV plus PegIFN/RBV in HCV/HIV coinfected patients: safety (adverse events, HIV RNA suppression); type: in vivo, human
Protocol: (§1) Safety and Efficacy of 120 mg and 240 mg Compound (1) Once Daily in Combination With Pegylated Interferon Alpha 2a (PegIFN) and Ribavirin (RBV) for Treatment of Chronic Hepatitis C (HCV) Genotype 1 Infection in HIV/HCV Co-infected Patients. A Multinational, Randomised, Parallel Group, Open-label Trial.
(§2) The aim of this trial is to evaluate the efficacy and the safety of Compound (1) given for 12 or 24 weeks in combination with PegIFN/RBV given for 24 or up to 48 weeks in HCV treatment-naive or relapsers patients coinfected with HIV. Patients who achieve reduction of HCV viral load according to Early Treatment Success (ETS) criteria will be randomized 1:1 to stop triple therapy at 24 weeks, or continue PegIFN/RBV for 48 week treatment duration. Patients without ETS continue PegIFN/RBV for 48 week treatment duration.
(§3) Individuals co-infected with HCV/HIV who were HCV treatment-naïve (TN) or relapsed after previous HCV therapy were randomized to receive FDV 120 or 240 mg QD for 12 or 24 weeks, in combination with PegIFN (180 μg once weekly) and weight-based RBV for 24 or 48 weeks (response-guided). Patients on efavirenz- or PI-based antiretroviral therapy (ART) were allocated to receive FDV 240 mg or 120 mg QD, respectively; those receiving other ART or no ART were randomized to either FDV dose. Interim data remains blinded for FDV dose. Week 12 interim data are presented.
HCV RNA was BLD at Week 4/Week 12 in 64%/64% of patients not on ART, and in 63%/85% of patients receiving ART. […] For example, in a prior study in HCV GT1 mono-infected TN patients treated with 240 mg QD FDV plus PegIFN/RBV (Boehringer Ingelheim, data on file, Clinical Trial Report for study 1220.5, U12-2567-01), HCV RNA was BLQ at week 4 and BLD at week 12 in 94% (133/142) and 93% (132/142) of patients, respectively. […] These preliminary on-treatment efficacy data are promising given that a) 17% of the coinfected patients had cirrhosis (patients with cirrhosis were not included in the 1220.5 study), b) preliminary efficacy data in HCV/HIV coinfected represent sponsor-blinded results of both FDV dose groups (e.g., 120 mg QD and 240 mg QD FDV), and c) the HCV GT1/HIV co-infected patient population is historically a more difficult-to-treat patient population with substantially lower HCV cure rates with the current standard of care treatment of pegIFN and RBV when compared to HCV GT1 monoinfected patients. The most frequent adverse events (AEs) were those known for PegIFN/RBV treatment: nausea (37%), fatigue (33%) and diarrhea (27%). Serious AEs were reported in 32 (10%) patients (including 2 deaths; none considered related to study medications). To date, 18 patients discontinued early due to AEs.

[2] = test system: HCV genotype 1; test: Phase III trial of FDV plus PegIFN/RBV in HCV/HIV coinfected patients: virologic response (plasma HCV RNA), Week 12 interim data; type: in vivo, human; conditions: for Virologic response Week 4 BLD / Virologic response Week 12 BLD: HCV RNA <15 IU/mL, not detected; for Virologic response Week 4 BLQ / Virologic response Week 12 BLQ: HCV RNA <25 IU/mL; for Virologic response Week 4 BLQ: FDV 120 or 240 mg QD (dose blinded) plus PegIFN/RBV; for ETS (Week 4 BLQ and Week 8 BLD): early treatment success
Protocol: For the clinical trial described below, the Compound (1) drug product will be administered as a softgel capsule lipid-based formulation containing Compound (1) sodium salt. All references to “Compound (1)” in the below clinical study is the sodium salt form.
as §1, §2
• Sustained Virological Response (SVR): Plasma Hepatitis C Virus (HCV) Ribonucleic Acid (RNA) level <25 IU/mL, undetected at week 12 after the planned treatment duration.
HCV RNA level<25 IU/mL (undetected) 24 weeks after the originally planned treatment duration. • Early Treatment Success (ETS): Plasma HCV RNA level<25 IU/mL (detected or undetected) at Week 4 and HCV RNA<25 IU/mL, undetected at Week 8 and have not discontinued any study drug prior to week 24. • Alanine Aminotransferase normalisation: Alanine Aminotransferase in normal range 24 weeks after the end of the originally planned treatment duration
Inclusion criteria (selected): • 1. Chronic hepatitis C (HCV) genotype 1 infection • 2. Chronic Human Immunodeficiency Virus (HIV)-1 infection • 3. HCV treatment naive or HCV treatment experienced but only relapsers • 4. Age 18 to 70 years • 5. […] HCV viral load >1.000 IU/mL • 7. No AIDS-defining illness during 6 months prior to screening Exclusion criteria (selected): • 1. HCV infection of mixed genotype (1/2, 1/3, 1/4) • 2. Evidence of acute or chronic liver […] • 3. Hepatitis B virus (HBV) infection with presence of HBs-Ag • 4. Active malignancy or history or malignancy within the last 5 years • 5. Received concomitant systemic antiviral (other than antiretroviral), hematopoietic growth factor or immunomodulatory treatment in 28 days prior enrollment. • 6. Decompensated liver disease, as evidenced by ascites, hepatic encephalopathy, esophageal variceal bleeding, and/or laboratory values that add up to >/=7 points according tho the Child-Turcotte-Pugh classification • 7. Hemoglobin </=11 g/dL for women and </=12 g/dL for men • 8. Active autoimmune disease, including autoimmune hepatitis • 9. Known hypersensitivity to any ingredient of the study drugs
as §3

[3] = test system: HCV GT1; conditions: HCV GT1 mono-infected TN patients; 240 mg QD FDV plus PegIFN/RBV; study 1220.5; cited from earlier work
[4] = HCV/HIV coinfected patients (308 treated), interim
[5] = HCV/HIV co-infected TN patient population, interim data restated in text, FDV plus PegIFN/RBV
[6] = Relapsers (N = 69), FDV plus PegIFN/RBV
[7] = TN patients (N = 239), FDV plus PegIFN/RBV
[8] = Total (N = 308), FDV plus PegIFN/RBV
[9] = patients not on ART, FDV plus PegIFN/RBV
[10] = patients receiving ART, FDV plus PegIFN/RBV

SMILES: C=C[C@@H]1C[C@]1(NC(=O)[C@@H]1C[C@@H](Oc2cc(-c3csc(C(=O)NC(C)C)n3)nc3c(Br)c(OC)ccc23)CN1C(=O)[C@@H](NC(=O)OC1CCCC1)C(C)(C)C)C(=O)O [FDV, 1-{[4-[8-Bromo-2-(2-isopropylcarbamoyl-thiazol-4-yl)-7-methoxy-quinolin-4-yloxy]-1-(R)-(2-cyclopentyloxycarbonylamino-3,3-(S)-dimethyl-butyryl)-pyrrolidine-(S)-2-carbonyl]-amino}-2-(S)-vinyl-cyclopropane-(R)-carboxylic acid]
- Adverse event: diarrhea [1, 4]: 27%
- Adverse event: fatigue [1, 4]: 33%
- Adverse event: nausea [1, 4]: 37%
- Serious AEs reported, number of patients [1, 4]: 32 patients
- Serious AEs reported, share of patients [1, 4]: 10%
- Deaths (among serious AEs; none considered related to study medications) ([1]; HCV/HIV coinfected patients, interim): 2 deaths
- Patients discontinued early due to AEs ([1]; HCV/HIV coinfected patients, to date (interim)): 18 patients
- Loss of HIV RNA suppression ([1]; patients on ART): No patient on ART experienced loss of HIV RNA suppression
- Early virologic response rates ([2]; HCV GT1 patients coinfected with HIV, Weeks 4 and 12, FDV plus PegIFN/RBV, interim analysis): high early virologic response rates
- HCV RNA BLD at week 12, patients [2, 5]: 82%
- HCV RNA BLQ at week 4, patients [2, 5]: 80%
- Virologic response Week 4 BLD [2, 6]: 51 (74) n (%)
- Virologic response Week 12 BLD [2, 6]: 63 (91) n (%)
- Virologic response Week 4 BLQ ([2]; Relapsers (N = 69)): 63 (91)^b n (%)
- Virologic response Week 12 BLQ [2, 6]: 64 (93)^d n (%)
- ETS (Week 4 BLQ and Week 8 BLD) [2, 6]: 61 (88) n (%)
- Virologic response Week 4 BLD [2, 7]: 143 (60) n (%)
- Virologic response Week 12 BLD [2, 7]: 195 (82) n (%)
- Virologic response Week 4 BLQ ([2]; TN patients (N = 239)): 191 (80)^a n (%)
- Virologic response Week 12 BLQ [2, 7]: 206 (86)^c n (%)
- ETS (Week 4 BLQ and Week 8 BLD) [2, 7]: 184 (77)^e n (%)
- Virologic response Week 4 BLD [2, 8]: 194 (63) n (%)
- Virologic response Week 12 BLD [2, 8]: 258 (84) n (%)
- Virologic response Week 4 BLQ ([2]; Total (N = 308)): 254 (82) n (%)
- Virologic response Week 12 BLQ [2, 8]: 270 (88) n (%)
- ETS (Week 4 BLQ and Week 8 BLD) [2, 8]: 245 (80) n (%)
- HCV RNA BLD at Week 4, patients [2, 9]: 64%
- HCV RNA BLD at week 12, patients [2, 9]: 64%
- HCV RNA BLD at Week 4, patients [2, 10]: 63%
- HCV RNA BLD at week 12, patients [2, 10]: 85%
- HCV RNA BLD at week 12, number of patients of total [3]: 132/142
- HCV RNA BLD at week 12, patients [3]: 93%
- HCV RNA BLQ at week 4, number of patients of total [3]: 133/142
- HCV RNA BLQ at week 4, patients [3]: 94%
